According to patent US20250154120A1, “COUMARIN COMPOUNDS AND USES THEREOF” (priority 2022, published 2025):
Where two headings read alike, the source gives them in different places.

Columns and labels:
HCT116 cells = experiment: HCT116 cell proliferation inhibition in vitro (3D CellTiter-Glo, 5 days); type: cell-based; settings: Homo sapiens, HCT-116, 120 h, read-out: HCT116/IC50
Experimental: McCoy's 5A medium, penicillin/streptomycin antibiotics purchased from Vicente, fetal bovine serum purchased from Biosera. 3D CellTiter-Glo (cell viability chemiluminescence detection reagent) reagent purchased from Promega. HCT116 cell line purchased from Nanjing Kebai Biotechnology Co., Ltd. Envision multi-label analyzer (PerkinElmer).
HCT116 cells were seeded in ultra-low attachment 96-well U-shaped plates, with 80 μL of cell suspension per well, containing 1000 HCT116 cells. The cell plate was cultured in a carbon dioxide incubator overnight.
The compound to be tested was serially diluted 5-fold to the 9th concentration using a pipette, that is, from 2 mM to 5.12 nM, in duplicates. 78 μL of culture medium was added to a middle plate, and then 2 μL of the serially diluted compound per well was transferred to the middle plate according to the corresponding position. After mixing well, 20 μL of the mixture was transferred to each well of the cell plate. The concentration range of the compound transferred to the cell plate was 10 μM to 0.0256 nM. The cell plate was placed in a carbon dioxide incubator and cultured for 5 days. Another cell plate was prepared, and its signal value was read on the day of drug addition as the […] for data analysis.
100 μL of cell viability chemiluminescent detection reagent was added to the cell plate and the mixture was incubated at room temperature for 10 minutes to stabilize the luminescent signal. The plate was read using a multi-label analyzer.
The raw data was converted into inhibition rate using the equation (Sample−Min)/(Max−Min)*100%, and the IC50 value may be obtained by four-parameter curve fitting (obtained in the “log(inhibitor) vs. response—Variable slope” mode in GraphPad Prism). The assay results of the inhibitory activity of the compounds of the present disclosure on HCT116 cell proliferation are shown in Table 1.

NCI-H358 = experiment: Subcutaneous xenograft tumor model of human non-small cell lung cancer NCI-H358 in female BALB/c Nude mice; type: in vivo, mouse
Experimental: In vivo pharmacodynamic study of the test drug on the subcutaneous xenograft tumor model of human non-small cell lung cancer NCI-H358 in female BALB/c Nude mice
1. Cell culture: Human lung cancer cells NCI-H358 (ECACC-95111733) were revived and cultured in vitro in monolayers in RPMI 1640 medium with 10% fetal bovine serum and 1% double antibody. The cells were cultured in a 37° C. 5% CO2 cell incubator, and passaged twice a week. When the saturation of NCI-H358 cells reached 80%-90%, the cells were harvested, counted, and inoculated.
2. Animals: BALB/c Nude mice, female, 6-8 weeks old, weighing 18-22 g
3. Tumor inoculation: 5×10^6 NCI-H358 cells were inoculated on the right side of the neck of each mouse, with an inoculation volume of 0.1 mL. The cell suspension was a mixture of PBS and Matrigel (3:1). When the average tumor volume reached 150-200 mm^3, the mice were randomly divided into groups for drug administration. The drug administration scheme and the number of assay animals in each group are shown in Table 3 below: Assay animal grouping and administration regimen
The assay index is to examine whether the tumor growth is inhibited, delayed or cured. The tumor diameter was measured with a vernier caliper twice a week. The calculation formula of tumor volume is: V=0.5 a×b^2, where a and b represent the long diameter and short diameter of the tumor respectively.
The anti-tumor efficacy of the compound was evaluated by TGI (%) or relative tumor proliferation rate T/C (%). TGI (%) reflects the tumor growth inhibition rate. Calculation of TGI (%): TGI (%)=[1−(average tumor volume of a certain treatment group at a certain measurement−average tumor volume of the treatment group at grouping)/(average tumor volume of the vehicle control group at the same measurement−average tumor volume of the vehicle control group at grouping)]×100%. Relative tumor proliferation rate T/C (%): The calculation formula is as follows: T/C %=TRTV/CRTV×100% (TRTV: RTV of the treatment group; CRTV: RTV of the negative control group). The relative tumor volume (RTV) was calculated based on the results of tumor measurement. The calculation formula is RTV=VtV0, where V0 is the average tumor volume measured at grouping (i.e. PG-D0), Vt is the average tumor volume at a certain measurement, and TRTV and CRTV are taken from the same day.
TGI (%) reflects the tumor growth inhibition rate. TGI (%)=[(1−(average tumor volume at the end of a treatment group's administration−average tumor volume at the beginning of the treatment group's administration))/(average tumor volume at the end of the vehicle control group's treatment−average tumor volume at the beginning of the vehicle control group's treatment)]×100%.

[1] = Pharmacokinetic study in CD-1 male mice after oral and intravenous administration; type: in vivo; settings: mouse, plasma; for AUC(0-t): read-out: Area under the plasma concentration-time curve AUC0-last
Experimental: Pharmacokinetic study of the test compound in CD-1 male mice after oral and intravenous injection
The test compound was mixed with 10% dimethyl sulfoxide/30% PEG-400/60% aqueous solution, vortexed and sonicated to prepare a 0.20 mg/mL clear solution. The clear solution was filtered through a microporous filter for later use. Male CD-1 mice aged 7 to 10 weeks were selected and intravenously injected with a candidate compound solution and a reference compound VS-6766 solution. The reference compound and the test compound were respectively mixed with 20% sulfobutyl-β-cyclodextrin/80% aqueous solution, vortexed and sonicated to prepare a 0.20 mg/mL nearly transparent solution containing fine particles, and the candidate compound solution was orally administered. Whole blood was collected for a certain period of time, and the plasma was prepared. The drug concentration was analyzed by LC-MS/MS method, and the pharmacokinetic parameters were calculated using Phoenix WinNonlin software (Pharsight, USA).

[2] = HCT116 cells, 5 days culture, cell viability chemiluminescence
[3] = 0.3 mg/kg p.o. QD, day 28 (discontinued D10-D17 and D23-D25)
[4] = 1.5 mg/kg p.o. QD, day 28 (discontinued D3-D13, changed to 0.05 after D14)

Row | Structure (SMILES) | IC50 (HCT116 cells; [2]) | IC50 (HCT116 cells) | Mean tumor volume (NCI-H358; [3]) | T/C (NCI-H358; [3]) | TGI (NCI-H358; [3]) | Mean tumor volume (NCI-H358; [4]) | T/C (NCI-H358; [4]) | TGI (NCI-H358; [4]) | Vd ([1]; intravenous injection, 1.04 mg/kg, read-out: Apparent volume of distribution Vdss) | AUC(0-t) ([1]; intravenous injection, 1.04 mg/kg) | clearance ([1]; intravenous injection, 1.04 mg/kg, read-out: Clearance CL) | half-life ([1]; intravenous injection, 1.04 mg/kg, read-out: Half-life T1/2 (converted)) | AUC(0-t) ([1]; oral administration, 2.16 mg/kg) | Cmax ([1]; oral administration, 2.16 mg/kg, read-out: Peak concentration Cmax) | Tmax ([1]; oral administration, 2.16 mg/kg, read-out: Time to peak Tmax) | bioavailability ([1]; oral administration, 2.16 mg/kg, read-out: Bioavailability F)
1 | CNS(=O)(=O)Nc1cccc(Cc2c(C)c3c(F)cc(Oc4ncccn4)cc3oc2=O)c1F [Compound 1] | 17 nM |  |  |  |  |  |  |  |  |  |  |  |  |  |  | 
2 | CNS(=O)(=O)Nc1cccc(Cc2c(C)c3c(F)cc(OC(=O)N(C)C)cc3oc2=O)c1F [Compound 2] |  | 7.2 nM |  |  |  |  |  |  |  |  |  |  |  |  |  | 
3 | CNS(=O)(=O)Nc1nccc(Cc2c(C)c3c(F)cc(Oc4ncccn4)cc3oc2=O)c1F [Compound 3] | 28.7 nM |  | 71 mm^3 | 7.90% | 111.4% | 67 mm^3 | 7.45% | 111.9% | 0.35 L/kg | 46.8 µM·h | 0.69 mL/min/kg | 5.73 h | 85.8 µM·h | 10.9 µM | 0.63 h | 89.8%
